Holding throughout (assay): DSF 100 kinase selectivity screen;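 note: compound tested at 20 µM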
Holding throughout (format): binding

Assay [1] concerns the target T1, ~100 representative kinases (Homo sapiens, UniProt O15075).
T1 construct: Recombinant protein kinase domains with a concentration of 2 μM
The following applies: Protein DCAMKL1; average of three replicates. The procedure:
(§1) Recombinant protein kinase domains with a concentration of 2 μM were mixed with a 20 μM compound solution in dimethyl sulfoxide (DMSO), 20 mM Hepes (pH 7.5), and 500 mM NaCl. SYPRO Orange (5000×, Invitrogen) was added as a fluorescence probe (1μl/ml). Subsequently, temperature-dependent protein unfolding profiles were measured using the QuantStudio 5 realtime PCR machine (Thermo Fisher Scientific, Waltham, MA, USA). […] The temperature was raised with a step rate of 3°C/min. […] Differences in melting temperature are given as ΔTm values in degrees Celsius. […]

The target in assay [2] is T2, ~100 representative kinases (Homo sapiens, UniProt O43293).
T2 construct: Recombinant protein kinase domains with a concentration of 2 μM
The following applies: Protein DAPK3; average of three replicates. The procedure: as §1

Assay [3] addresses T3, ~100 representative kinases (Homo sapiens, UniProt O94768).
T3 construct: Recombinant protein kinase domains with a concentration of 2 μM
T3 sequence (O94768 1-372): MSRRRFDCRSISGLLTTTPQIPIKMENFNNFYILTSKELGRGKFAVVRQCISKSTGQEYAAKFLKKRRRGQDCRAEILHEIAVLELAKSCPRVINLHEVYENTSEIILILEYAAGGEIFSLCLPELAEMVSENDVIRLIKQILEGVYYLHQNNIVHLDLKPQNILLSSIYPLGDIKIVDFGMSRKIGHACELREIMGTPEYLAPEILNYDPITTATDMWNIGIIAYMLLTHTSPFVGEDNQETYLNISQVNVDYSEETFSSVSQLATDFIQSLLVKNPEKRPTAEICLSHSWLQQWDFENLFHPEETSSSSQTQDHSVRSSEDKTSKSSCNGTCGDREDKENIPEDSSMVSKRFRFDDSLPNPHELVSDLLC
To be noted: Protein STK17B; DSF; average of three replicates. As for the experimental part:
as §1

For assay [4], the target named is T4, ~100 representative kinases (Homo sapiens, UniProt O94804).
T4 construct: Recombinant protein kinase domains with a concentration of 2 μM
To be noted: Protein STK10; DSF; average of three replicates. As for the experimental part:
as §1

The target in assay [5] is T5, ~100 representative kinases (Homo sapiens, UniProt O96017).
T5 construct: Recombinant protein kinase domains with a concentration of 2 μM
To be noted: Protein CHEK2; average of three replicates. As for the experimental part: as §1

Assay [6] deals with T6, ~100 representative kinases (Homo sapiens, UniProt P19784).
T6 construct: Recombinant protein kinase domains with a concentration of 2 μM
The following applies: Protein CK2A2; average of three replicates. The procedure:
as §1

Assay [7] has as its target T7, ~100 representative kinases (Homo sapiens, UniProt P45984).
T7 construct: Recombinant protein kinase domains with a concentration of 2 μM
The following applies: protein MAPK9; average of three replicates. The procedure: as §1

Assay [8] has as its target T8, ~100 representative kinases (Homo sapiens, UniProt P53779).
T8 construct: Recombinant protein kinase domains with a concentration of 2 μM
The following applies: protein MAPK10; average of three replicates. The procedure: as §1

For assay [9], the target named is T9, ~100 representative kinases (Homo sapiens, UniProt Q13043).
T9 construct: Recombinant protein kinase domains with a concentration of 2 μM
T9 sequence (Q13043 1-487): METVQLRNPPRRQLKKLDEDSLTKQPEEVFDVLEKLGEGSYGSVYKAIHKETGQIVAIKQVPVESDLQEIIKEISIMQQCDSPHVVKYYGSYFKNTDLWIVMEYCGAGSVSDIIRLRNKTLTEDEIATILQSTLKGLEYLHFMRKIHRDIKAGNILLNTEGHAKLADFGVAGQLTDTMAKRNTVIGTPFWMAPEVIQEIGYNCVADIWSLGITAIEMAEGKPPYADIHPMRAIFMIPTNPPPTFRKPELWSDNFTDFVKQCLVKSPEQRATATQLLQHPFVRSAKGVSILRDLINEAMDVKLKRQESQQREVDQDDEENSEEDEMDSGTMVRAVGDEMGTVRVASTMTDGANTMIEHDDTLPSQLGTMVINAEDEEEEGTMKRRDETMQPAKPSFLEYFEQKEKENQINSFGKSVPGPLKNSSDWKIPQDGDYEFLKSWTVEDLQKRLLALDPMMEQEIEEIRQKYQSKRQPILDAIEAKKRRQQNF
The following applies: Protein STK4; DSF; average of three replicates. The procedure: as §1

In assay [10] the target is T10, ~100 representative kinases (Homo sapiens, UniProt Q13557).
T10 construct: Recombinant protein kinase domains with a concentration of 2 μM
The following applies: Protein CAMK2D; average of three replicates. The procedure:
as §1

Assay [11] deals with T11, ~100 representative kinases (Homo sapiens, UniProt Q14680).
T11 construct: Recombinant protein kinase domains with a concentration of 2 μM
To be noted: protein MELK; average of three replicates. The procedure: as §1

Assay [12] deals with T12, ~100 representative kinases (Homo sapiens, UniProt Q15418).
T12 construct: Recombinant protein kinase domains with a concentration of 2 μM
To be noted: Protein RPS6KA1; DSF; average of three replicates. The procedure:
as §1

Assay [13] concerns the target T13, ~100 representative kinases (Homo sapiens, UniProt Q2M2I8).
T13 construct: Recombinant protein kinase domains with a concentration of 2 μM
To be noted: Protein AAK1; average of three replicates. The procedure: as §1

The target of assay [14] is T14, ~100 representative kinases (Homo sapiens, UniProt Q86V86).
T14 construct: Recombinant protein kinase domains with a concentration of 2 μM
The following applies: protein PIM3; average of three replicates. The procedure:
as §1

The target of assay [15] is T15, ~100 representative kinases (Homo sapiens, UniProt Q8TF76).
T15 construct: Recombinant protein kinase domains with a concentration of 2 μM
T15 sequence (Q8TF76 1-798): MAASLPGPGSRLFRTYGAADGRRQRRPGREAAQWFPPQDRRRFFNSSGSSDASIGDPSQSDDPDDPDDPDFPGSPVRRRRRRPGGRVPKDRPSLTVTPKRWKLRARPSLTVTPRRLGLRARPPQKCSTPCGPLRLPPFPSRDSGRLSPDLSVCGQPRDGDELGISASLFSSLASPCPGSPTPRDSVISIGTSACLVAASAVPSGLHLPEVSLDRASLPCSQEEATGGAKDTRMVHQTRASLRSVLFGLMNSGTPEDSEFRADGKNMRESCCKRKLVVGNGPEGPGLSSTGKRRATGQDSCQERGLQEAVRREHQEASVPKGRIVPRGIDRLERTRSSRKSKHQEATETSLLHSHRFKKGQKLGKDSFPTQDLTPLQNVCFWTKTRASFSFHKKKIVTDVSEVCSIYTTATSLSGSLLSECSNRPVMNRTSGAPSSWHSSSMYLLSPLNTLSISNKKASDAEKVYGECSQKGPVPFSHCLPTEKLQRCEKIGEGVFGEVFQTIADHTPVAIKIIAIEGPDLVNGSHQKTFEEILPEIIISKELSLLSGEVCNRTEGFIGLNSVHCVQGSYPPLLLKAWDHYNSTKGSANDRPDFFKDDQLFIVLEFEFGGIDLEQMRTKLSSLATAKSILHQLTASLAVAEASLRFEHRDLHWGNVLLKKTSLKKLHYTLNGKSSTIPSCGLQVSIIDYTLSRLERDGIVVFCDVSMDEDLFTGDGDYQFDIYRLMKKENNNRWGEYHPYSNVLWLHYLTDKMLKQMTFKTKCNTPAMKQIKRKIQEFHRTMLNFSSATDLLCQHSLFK
To be noted: protein GSG2; average of three replicates. As for the experimental part: as §1

T5 sequence (O96017 whole entry, the tested form may be a part): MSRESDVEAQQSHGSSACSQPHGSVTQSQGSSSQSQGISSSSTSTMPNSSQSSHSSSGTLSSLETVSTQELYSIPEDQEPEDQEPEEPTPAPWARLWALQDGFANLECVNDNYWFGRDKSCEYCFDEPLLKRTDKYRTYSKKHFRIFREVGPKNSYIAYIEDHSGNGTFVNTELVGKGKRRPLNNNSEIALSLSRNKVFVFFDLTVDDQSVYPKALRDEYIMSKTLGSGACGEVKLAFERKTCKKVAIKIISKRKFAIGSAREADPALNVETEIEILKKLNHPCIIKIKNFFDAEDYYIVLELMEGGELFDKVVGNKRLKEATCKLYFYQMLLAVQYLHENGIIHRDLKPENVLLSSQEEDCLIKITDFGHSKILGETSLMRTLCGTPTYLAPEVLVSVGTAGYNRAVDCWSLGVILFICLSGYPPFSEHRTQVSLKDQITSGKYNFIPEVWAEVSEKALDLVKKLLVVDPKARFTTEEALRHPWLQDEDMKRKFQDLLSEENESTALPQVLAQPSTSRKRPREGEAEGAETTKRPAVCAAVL
T13 sequence (Q2M2I8 whole entry, the tested form may be a part): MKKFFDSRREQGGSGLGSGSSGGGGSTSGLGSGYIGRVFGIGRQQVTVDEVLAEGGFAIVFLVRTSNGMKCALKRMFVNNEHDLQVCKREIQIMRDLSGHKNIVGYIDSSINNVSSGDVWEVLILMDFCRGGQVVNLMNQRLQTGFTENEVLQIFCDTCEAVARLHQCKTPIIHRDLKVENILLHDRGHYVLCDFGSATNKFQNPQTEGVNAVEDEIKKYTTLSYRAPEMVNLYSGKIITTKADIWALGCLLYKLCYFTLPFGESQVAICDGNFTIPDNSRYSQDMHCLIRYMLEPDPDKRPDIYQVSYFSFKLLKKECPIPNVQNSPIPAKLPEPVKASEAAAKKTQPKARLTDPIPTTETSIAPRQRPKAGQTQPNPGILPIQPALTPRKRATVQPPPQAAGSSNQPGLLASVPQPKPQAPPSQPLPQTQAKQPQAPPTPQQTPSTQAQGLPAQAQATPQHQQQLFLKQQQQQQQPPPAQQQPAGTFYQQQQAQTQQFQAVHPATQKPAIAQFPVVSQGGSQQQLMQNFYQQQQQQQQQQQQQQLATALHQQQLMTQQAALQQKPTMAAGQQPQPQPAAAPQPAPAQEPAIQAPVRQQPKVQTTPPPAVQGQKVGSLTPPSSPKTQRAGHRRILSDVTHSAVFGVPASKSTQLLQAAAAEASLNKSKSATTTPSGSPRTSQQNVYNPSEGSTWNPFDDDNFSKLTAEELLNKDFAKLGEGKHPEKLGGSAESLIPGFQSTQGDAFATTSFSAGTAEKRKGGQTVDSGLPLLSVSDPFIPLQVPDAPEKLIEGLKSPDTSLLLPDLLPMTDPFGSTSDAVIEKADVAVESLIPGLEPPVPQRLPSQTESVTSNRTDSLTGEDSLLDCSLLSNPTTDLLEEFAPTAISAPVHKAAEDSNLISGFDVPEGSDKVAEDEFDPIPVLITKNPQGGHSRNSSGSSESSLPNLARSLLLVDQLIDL
T11 sequence (Q14680 whole entry, the tested form may be a part): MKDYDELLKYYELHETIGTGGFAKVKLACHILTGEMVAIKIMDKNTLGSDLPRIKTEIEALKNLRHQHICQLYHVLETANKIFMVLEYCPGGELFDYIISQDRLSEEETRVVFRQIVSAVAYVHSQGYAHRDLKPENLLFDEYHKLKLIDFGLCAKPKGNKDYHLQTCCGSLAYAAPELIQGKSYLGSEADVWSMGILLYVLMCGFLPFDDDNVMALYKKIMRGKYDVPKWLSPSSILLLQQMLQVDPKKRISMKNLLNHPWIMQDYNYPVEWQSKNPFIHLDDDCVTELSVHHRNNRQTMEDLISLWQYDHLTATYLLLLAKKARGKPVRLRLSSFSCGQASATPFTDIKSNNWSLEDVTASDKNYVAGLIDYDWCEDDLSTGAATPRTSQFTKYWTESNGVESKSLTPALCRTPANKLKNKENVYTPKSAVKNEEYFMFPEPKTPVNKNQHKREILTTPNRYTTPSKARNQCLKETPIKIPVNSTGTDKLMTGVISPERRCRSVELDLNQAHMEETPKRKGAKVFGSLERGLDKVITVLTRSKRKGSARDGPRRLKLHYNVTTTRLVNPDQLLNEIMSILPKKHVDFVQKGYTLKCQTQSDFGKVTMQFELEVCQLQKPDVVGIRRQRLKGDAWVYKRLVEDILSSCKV
T4 sequence (O94804 whole entry, the tested form may be a part): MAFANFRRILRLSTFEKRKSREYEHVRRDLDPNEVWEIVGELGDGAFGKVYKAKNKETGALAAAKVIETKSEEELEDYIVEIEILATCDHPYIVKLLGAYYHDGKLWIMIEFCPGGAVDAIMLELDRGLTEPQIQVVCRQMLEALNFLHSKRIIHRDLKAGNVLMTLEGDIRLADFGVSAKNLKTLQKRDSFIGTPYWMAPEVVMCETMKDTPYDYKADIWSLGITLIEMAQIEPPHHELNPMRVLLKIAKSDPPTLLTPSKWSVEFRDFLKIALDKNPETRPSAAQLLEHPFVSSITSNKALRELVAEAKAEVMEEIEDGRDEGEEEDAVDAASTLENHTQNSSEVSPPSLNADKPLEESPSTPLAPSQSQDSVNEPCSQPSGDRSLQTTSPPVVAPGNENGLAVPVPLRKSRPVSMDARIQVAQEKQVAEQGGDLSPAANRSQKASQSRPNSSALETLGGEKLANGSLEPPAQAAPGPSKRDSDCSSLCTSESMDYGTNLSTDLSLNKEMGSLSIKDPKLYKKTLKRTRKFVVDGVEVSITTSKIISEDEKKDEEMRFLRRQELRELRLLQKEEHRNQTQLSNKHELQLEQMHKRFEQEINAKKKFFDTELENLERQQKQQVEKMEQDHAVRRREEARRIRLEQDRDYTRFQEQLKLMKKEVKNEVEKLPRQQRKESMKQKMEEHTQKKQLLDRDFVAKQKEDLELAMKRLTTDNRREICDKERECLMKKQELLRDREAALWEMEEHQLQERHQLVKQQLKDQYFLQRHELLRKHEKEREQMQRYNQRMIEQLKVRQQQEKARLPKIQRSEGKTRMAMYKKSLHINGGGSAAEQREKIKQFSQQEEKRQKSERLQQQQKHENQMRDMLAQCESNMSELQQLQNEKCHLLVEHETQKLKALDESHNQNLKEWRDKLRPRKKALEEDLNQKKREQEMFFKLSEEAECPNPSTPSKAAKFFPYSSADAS
T7 sequence (P45984 whole entry, the tested form may be a part): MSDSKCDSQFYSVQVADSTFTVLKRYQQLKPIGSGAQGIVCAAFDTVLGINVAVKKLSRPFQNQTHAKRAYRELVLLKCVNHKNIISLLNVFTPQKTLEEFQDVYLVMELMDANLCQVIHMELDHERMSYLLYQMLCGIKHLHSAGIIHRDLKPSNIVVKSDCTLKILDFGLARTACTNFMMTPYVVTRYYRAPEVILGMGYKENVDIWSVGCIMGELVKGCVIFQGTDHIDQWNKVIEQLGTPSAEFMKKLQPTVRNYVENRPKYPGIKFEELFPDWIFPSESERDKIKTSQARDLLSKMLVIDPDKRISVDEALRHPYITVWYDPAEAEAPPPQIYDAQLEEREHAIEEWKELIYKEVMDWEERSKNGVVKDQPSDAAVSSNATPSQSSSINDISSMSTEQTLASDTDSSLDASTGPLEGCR
T2 sequence (O43293 whole entry, the tested form may be a part): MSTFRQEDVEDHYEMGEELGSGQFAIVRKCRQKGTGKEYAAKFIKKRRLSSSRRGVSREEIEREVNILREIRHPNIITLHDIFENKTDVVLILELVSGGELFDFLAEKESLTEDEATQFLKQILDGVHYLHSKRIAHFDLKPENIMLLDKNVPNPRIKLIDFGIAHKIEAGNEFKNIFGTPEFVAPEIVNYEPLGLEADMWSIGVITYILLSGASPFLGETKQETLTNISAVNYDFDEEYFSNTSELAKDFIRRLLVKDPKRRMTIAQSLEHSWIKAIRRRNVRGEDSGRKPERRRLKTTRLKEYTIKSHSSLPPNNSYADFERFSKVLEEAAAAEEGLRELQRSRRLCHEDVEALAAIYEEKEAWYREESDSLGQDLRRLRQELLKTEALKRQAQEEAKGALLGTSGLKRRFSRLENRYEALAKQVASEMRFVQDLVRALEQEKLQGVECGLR
T6 sequence (P19784 whole entry, the tested form may be a part): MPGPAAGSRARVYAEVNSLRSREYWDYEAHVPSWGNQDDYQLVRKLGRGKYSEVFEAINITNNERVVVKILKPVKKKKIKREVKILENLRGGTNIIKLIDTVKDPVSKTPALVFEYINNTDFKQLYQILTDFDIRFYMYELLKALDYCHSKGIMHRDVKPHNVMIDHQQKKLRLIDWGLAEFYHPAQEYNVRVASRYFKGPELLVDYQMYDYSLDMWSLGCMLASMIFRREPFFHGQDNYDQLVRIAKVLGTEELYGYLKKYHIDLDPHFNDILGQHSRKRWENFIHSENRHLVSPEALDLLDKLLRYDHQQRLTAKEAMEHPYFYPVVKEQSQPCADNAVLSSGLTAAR

As to `O=C(Nc1ccccc1)C1(C(=O)Nc2cccc(-c3c[nH]c4ncnc(N5CCOCC5)c34)c2)CC1` [Compound 12], the dTm worked out at 0.95 K in [1]; 6.20 K in [2]; 7.92 K in [3]; 11.85 K in [4]; 3.05 K in assay [5]; 7.05 K in assay [6]. For the same compound, the dTm in assay [7] came to 2.81 K; in [8] it was 2.45 K; in [9] it was 4.49 K; in assay [10], 0.39 K; in [11] it was 12.58 K; in assay [12], 0.56 K. The figures for the dTm in assay [13], in [14] and in [15] were 3.79 K, 0.88 K and -0.45 K, respectively.

Regarding `O=C(Nc1ccc(Cl)cc1)C1(C(=O)Nc2cccc(-c3c[nH]c4ncnc(N5CCOCC5)c34)c2)CC1` [Compound 13], the dTm in [1] is given as 2.89 K; in [2], 8.55 K; in [3], 8.61 K; in assay [4], 14.64 K; in assay [5], 5.52 K; in [6] it was 9.70 K. The dTm in assay [7] is recorded as 3.96 K; in assay [8] it was 3.61 K; in assay [9], 7.95 K; in assay [10], 1.12 K; in [11], 15.01 K; in assay [12], -0.42 K. Moreover, the results for the dTm in assay [13], in assay [14] and in [15] were 3.55 K, 1.90 K and 0.82 K, respectively.

`Cc1ccc(NC(=O)C2(C(=O)Nc3cccc(-c4c[nH]c5ncnc(N6CCOCC6)c45)c3)CC2)cc1` [Compound 14]: the dTm is -0.07 K in assay [1]; 4.16 K in [2]; 4.70 K in assay [3]; 11.44 K in [4]; 3.90 K in assay [5]; 5.87 K in assay [6]. Moreover, the dTm in assay [7] is 2.56 K; in assay [8], -1.31 K; in [9] it was 4.82 K; in assay [10], 0.26 K; in assay [11] it was 11.82 K; in assay [12], 0.14 K. Also, the values for the dTm in assay [13], in assay [14] and in [15] were 2.28 K, 0.71 K and -0.69 K, respectively.

For `CCc1ccc(NC(=O)C2(C(=O)Nc3cccc(-c4c[nH]c5ncnc(N6CCOCC6)c45)c3)CC2)cc1` [Compound 15], the dTm in assay [1] is recorded as 0.05 K; in [2], 3.77 K; in assay [3], 6.64 K; in assay [4], 12.89 K; in [5] it was 6.14 K; in assay [6], 1.24 K. In addition, the dTm in assay [7] was 4.14 K; in assay [8] it was -0.66 K; in [9], 5.52 K; in assay [10], 0.37 K; in assay [11], 6.77 K; in assay [12] it was 0.29 K. For the same compound, the dTm is reported as 2.03 K in [13], 1.24 K in assay [14] and -1.97 K in assay [15].

As to `COc1ccc(NC(=O)C2(C(=O)Nc3cccc(-c4c[nH]c5ncnc(N6CCOCC6)c45)c3)CC2)cc1` [Compound 16], the dTm is on record as -1.88 K in assay [1]; 1.15 K in [2]; 2.09 K in [3]; 7.29 K in assay [4]; 2.18 K in [5]; 4.77 K in assay [6]. For the same compound, the dTm in assay [7] is on record as 1.53 K; in [8], 0.65 K; in assay [9] it was 2.68 K; in assay [10], -0.55 K; in assay [11] it was 8.41 K; in [12], -0.37 K. The dTm in assay [13] is 1.75 K; in assay [14], 0.23 K; in assay [15], -0.39 K.

These data come from paper PMC12136037, “Type II kinase inhibitors that target Parkinson’s disease–associated LRRK2” (Science Advances, 2025).
